{
  "source": "patent US12319726B2",
  "about": "“Method for treating CD40-mediated diseases” (CASE WESTERN RESERVE UNIVERSITY, priority 2008, dated 2025)",
  "key": {"[1]": {"system": "human retinal endothelial cells", "assay": "ICAM-1 upregulation in human retinal endothelial cells (flow cytometry)", "format": "cell-based", "settings": "1 μM, 24 h", "procedure": "FIG. 18 illustrates graphs showing ri CD40-TRAF2,3 blocking peptide inhibits CD40-driven upregulation of ICAM-1. Human retinal endothelial cells were treated with ri control peptide (Ctr P) or ri CD40-TRAF2,3 blocking peptide (T2,3 BP; both at 1 μM) followed by stimulation with CD154 or TNF-α. Expression of ICAM-1 was assessed by flow cytometry at 24 h. Data shown represent Mean±SD. Results are representative of 2 independent experiments. **P<0.01.\nPrimary human retinal endothelial cells were obtained as described (9) and cultured in complete medium supplemented with endothelial cell growth supplement from bovine pituitary (15 μg/ml; Sigma Chemical, St Louis, MO) and insulin/transferrin/selenium (Sigma Chemical). Cell identity was confirmed by incorporation of acetylated low-density lipoprotein (>90%). Endothelial cells were used between passages 3 to 6. The human Müller cell line MIO M1 (gift from Dr. Gloria Limb; University College London, UK; >95% vimentin^+, CRALBP^+ and GFAP^−) was also used. Endothelial cells were incubated with multimeric human CD154 to induce CD40 stimulation (obtained from Dr. Richard Kornbluth, Multimeric Biotherapeutics Inc., La Jolla, CA) or with a non-functional CD154 mutant (T147N) as control.\nCells were incubated with anti-ICAM-1 mAb (eBiosciences). After fixation with 1% paraformaldehyde, cells were analyzed using an LSR II (Becton Dickinson). […]"}, "retinas subjected to I/R": {"system": "retinas subjected to I/R", "assay": "Model of retinal ischemia/reperfusion (I/R), intravitreal peptide", "format": "in vivo, B6 mice", "procedure": "FIGS. 20(A-C) illustrate images and graphs showing ri CD40-TRAF2,3 blocking peptide protects against loss of ganglion cells and leukocyte infiltration in retinas subjected to I/R. One eye from each B6 and CD40^−/− mouse was subjected to I/R. Contralateral non-ischemic eye was used as control. Eyes subjected to I/R in B6 mice were treated intravitreously with or without ri control peptide, ri CD40-TRAF2,3 blocking peptide (both 1 μg) 30 min prior to increase in IOP. Eyes were collected 2 d after I/R. A marked decrease in the number of ganglion cells is observed in ischemic eyes from B6 treated with ri control peptide or vehicle (original magnification ×400). […] Arrowhead plus asterix identifies a PMN magnified in the inset (original magnification ×600). Scale bar, 50 μm. Number of ganglion cells per mm. Number of infiltrating leukocytes in the inner retina and vitreous per section. GCL=Ganglion cell layer; IPL=Inner plexiform layer; INL=Inner nuclear layer. OPL=Outer plexiform layer; ONL=Outer nuclear layer. Data shown represent Mean±SEM (9 mice per group). *P<0.05; **P<0.01; […].\nFIG. 21 illustrates graphs showing ri CD40-TRAF2,3 blocking peptide impairs upregulation of NOS2 and COX-2 in retinas subjected to I/R. One eye of each mouse was treated as above and subjected to I/R. Eyes were collected after 2 d. mRNA levels of NOS2 and COX-2 were assessed by quantitative real time PCR. One non-ischemic eye from a B6 mouse was given an arbitrary value of 1 and data are expressed as fold-increase compared to this animal. Data shown represent Mean±SEM (7-9 mice per group). ***P<0.001.\nFIGS. 22(A-B) illustrate graphs and images showing ri CD40-TRAF2,3 blocking peptide impairs upregulation of ICAM-1 and KC/CXCL1 in retinal endothelial cells from retinas subjected to I/R. One eye of each mouse was subjected to I/R. Eyes were collected after 2 d. mRNA levels of ICAM-1 and KC/CXCL1 were assessed by quantitative real time PCR. One non-ischemic eye from a B6 mouse was given an arbitrary value of 1 and data are expressed as fold-increase compared to this animal. Data shown represent Mean±SEM (7-9 mice per group). ***P<0.001. Retinal sections were incubated with Tomato Lectin (labels endothelial cells) plus either anti-ICAM-1 or anti-KC/CXCL1 Ab. Original magnification ×600. GCL=Ganglion cell layer; IPL=Inner plexiform layer; INL=Inner nuclear layer. Scale bar, 10 μm. 6 mice/group.\nFIG. 23 illustrates images showing ri CD40-TRAF2,3 blocking peptide impairs NOS2 and KC/CXCL1 upregulation in Müller cells from retinas subjected to I/R. Eyes from B6 mice were treated with control peptide or CD40-TRAF2,3 blocking peptide, subjected to I/R and collected after 2 d. Retinal sections were incubated with anti-Vimentin Ab (labels Müller cells) plus either anti-NOS2 or anti-KC/CXCL1 Ab. Protein expression at the level of Müller cells stalks. […]. Original magnification ×600. Scale bar, 10 μm. 6 mice/group.\nFIGS. 24(A-D) illustrate images and graphs showing ri CD40-TRAF2,3 blocking peptide protects against loss of ganglion neurons and inflammation when administered after retinal I/R. One eye from each B6 mouse was subjected to I/R. Non-ischemic eyes were used as controls. Eyes that were subjected to I/R received either ri control peptide or ri CD40-TRAF2,3 blocking peptide 90 min after increase in IOP. Eyes were collected 2 d after I/R. Administration of the blocking peptide protects against ganglion cell loss and infiltration by leukocytes (arrowhead). Original magnification ×400. Scale bar, 50 μm. Number of ganglion cells per mm. Number of leukocytes in the inner retina and vitreous per section. mRNA levels of ICAM-1, KC/CXCL1, NOS2 and COX-2 were assessed by quantitative real time PCR as above. Data shown represent Mean±SEM (7-9 mice per group). **P<0.01; ***P<0.001. GCL=Ganglion cell layer; IPL=Inner plexiform layer; INL=Inner nuclear layer. […]"}, "[2]": {"settings": "1 μg intravitreal prior to I/R, 2 d, real time PCR"}, "[3]": {"settings": "peptide administered 90 min post-retinal ischemia, 2 d, mRNA"}, "[4]": {"settings": "prior to I/R, 2 d, immunohistochemistry"}},
  "note": "Where a SMILES comes first, the peptide text is derived from it. [ ]: non-standard residue; d: D form.",
  "data": [
    {"compound": "CC(C)C[C@@H](NC(=O)[C@@H](Cc1c[nH]cn1)NC(=O)CNC(=O)[C@@H](Cc1ccc(O)cc1)NC(=O)CNC(=O)[C@@H](CCCNC(=N)N)NC(=O)[C@@H](CCCCN)NC(=O)[C@@H](CCCCN)NC(=O)[C@@H](CCCNC(=N)N)NC(=O)[C@@H](CCCNC(=N)N)NC(=O)[C@@H](CCC(N)=O)NC(=O)[C@@H](CCCNC(=N)N)NC(=O)[C@@H](CCCNC(=N)N)NC(=O)[C@H](N)CCCNC(=N)N)C(=O)N[C@@H](C(=O)N[C@H](CCC(=O)O)C(=O)N[C@H](CCC(N)=O)C(=O)N[C@@H](C(=O)N[C@H](Cc1c[nH]cn1)C(=O)N[C@H](C)C(=O)N[C@H](C)C(=O)N[C@@H](C(=O)N[C@H](CC(N)=O)C(=O)O)[C@H](C)O)C(C)C)[C@H](C)O", "note": "[ri CD40-TRAF2,3 blocking peptide, NH2-rrrqrrkkrgy ghlteqvhaatn-OH] (H-[dR][dR][dR][dQ][dR][dR][dK][dK][dR]G[dY]G[dH][dL][dT][dE][dQ][dV][dH][dA][dA][dT][dN]-OH)", "values": [
      {"measurement": "upregulation of ICAM-1 in response to CD154", "setting": "[1]; CD154 stimulation, P<0.01", "value": "impaired upregulation of ICAM-1"},
      {"measurement": "TNF-α-induced upregulation of ICAM-1", "setting": "[1]; TNF-α stimulation", "value": "no effect"},
      {"measurement": "COX-2 mRNA levels in retina", "setting": "retinas subjected to I/R; [2]", "value": "impaired upregulation"},
      {"measurement": "ICAM-1 mRNA levels in retina", "setting": "retinas subjected to I/R; [2]", "value": "significant reduction"},
      {"measurement": "KC/CXCL1 mRNA levels in retina", "setting": "retinas subjected to I/R; [2]", "value": "significant reduction"},
      {"measurement": "NOS2 mRNA levels in retina", "setting": "retinas subjected to I/R; [2]", "value": "impaired upregulation"},
      {"measurement": "PMN infiltration in the inner retina and vitreous", "setting": "retinas subjected to I/R; 1 μg intravitreal prior to I/R, 2 d after I/R", "value": "diminished inflammatory infiltrate"},
      {"measurement": "loss of ganglion cells", "setting": "retinas subjected to I/R; 1 μg intravitreal prior to I/R, eyes collected 2 d after I/R", "value": "significant attenuation in the loss of ganglion cells"},
      {"measurement": "leukocyte recruitment", "setting": "retinas subjected to I/R; peptide administered 90 min post-retinal ischemia, 2 d", "value": "protected against"},
      {"measurement": "upregulation of COX-2", "setting": "retinas subjected to I/R; [3]", "value": "protected against"},
      {"measurement": "upregulation of ICAM-1", "setting": "retinas subjected to I/R; [3]", "value": "protected against"},
      {"measurement": "upregulation of KC/CXCL1", "setting": "retinas subjected to I/R; [3]", "value": "protected against"},
      {"measurement": "upregulation of NOS2", "setting": "retinas subjected to I/R; [3]", "value": "protected against"},
      {"measurement": "ganglion cell loss", "setting": "retinas subjected to I/R; peptide administered 90 min post-retinal ischemia, eyes collected 2 d after I/R", "value": "protected against"},
      {"measurement": "expression of ICAM-1 in retinal endothelial cells", "setting": "retinas subjected to I/R; [4]", "value": "decreased expression"},
      {"measurement": "expression of KC/CXCL1 in Müller cells", "setting": "retinas subjected to I/R; [4]", "value": "impaired expression"},
      {"measurement": "expression of KC/CXCL1 in retinal endothelial cells", "setting": "retinas subjected to I/R; [4]", "value": "decreased expression"},
      {"measurement": "expression of NOS2 in Müller cells", "setting": "retinas subjected to I/R; [4]", "value": "impaired expression"}
    ]}
  ]
}
